The text below walks through data of US8143393B2, “Substituted 4-amino-pyrrolotriazine derivatives useful for treating hyper-proliferative disorders and diseases associated with angiogenesis” (Bayer HealthCare LLC, priority 2005, dated 2012).

The target of the assay is T1, FGFR-1 (Homo sapiens, UniProt P11362).
T1 construct: GST; made in house
Briefly: FGFR-1 TR-FRET biochemical assay. As to the method: FGFR-1TR-FRET Biochemical Assay
The FGFR-1 Assay was performed on half well 96-well opaque plates (Costar 3915) in a LANCE format. LANCE is a homogenous time resolved fluormetry based application available through Perkin Elmer. For this assay, 50 uL reactions were set up using: 0.6 uM ATP (Sigma), 25 nM poly GT-biotin (CIS BIO International), 2 nM Eu-labelled phospho-Tyr Ab (PY20 PerkinElmer), 10 nM Streptavidin-APC (Perkin Elmer), 5 nM FGFR1-GST (generated by DRT, Bayer Healthcare), 1% DMSO, 50 mM HEPES pH 7.5, 10 mM MgCl2, 0.1 mM EDTA, 0.015% Brij, 0.1 mg/ml BSA, 0.1% B-mercaptoethanol. All reactions were initiated with the addition of enzyme and were left to incubate for one hour at room temperature. Time-resolved fluorescence was then read on a Perkin Elmer VictorV Multilabel counter. The reading protocol uses an excitation wavelength at 340 nm and emission reads at both 615 and 665 nm. Signal was calculated as a ratio: (Flourescence at 665 nm/Flourescence at 615 nM)*10000 for each well. The background control used for this assay is the signal produced with all assay components excluding ATP. For IC50 generation, compounds were added prior to the enzyme initiation. A 50-fold stock plate was made with compounds serially diluted 1:5 in a 50% DMSO/50% dH2O solution. A 1 μL addition of the stock to the assay wells gave final compound concentrations ranging from 10 μM-0.128 nM in 1% DMSO. The data were expressed as percent inhibition: % inhibition=100−((Signal with inhibitor−background)/(Signal without inhibitor−background))*100.

The mark [1] stands for this setting: 0.6 uM ATP, 5 nM FGFR1-GST, bounds given in nM.
The mark [2] stands for this setting: upper bound of the bin 'greater than 100 nM but less than 1 μM' (lower bound in E1).

Structures are written as SMILES.

In general, IC50 refers to the midpoint of a concentration-inhibition curve. Read a high IC50 as lower potency.

T1 sequence (P11362 22-822): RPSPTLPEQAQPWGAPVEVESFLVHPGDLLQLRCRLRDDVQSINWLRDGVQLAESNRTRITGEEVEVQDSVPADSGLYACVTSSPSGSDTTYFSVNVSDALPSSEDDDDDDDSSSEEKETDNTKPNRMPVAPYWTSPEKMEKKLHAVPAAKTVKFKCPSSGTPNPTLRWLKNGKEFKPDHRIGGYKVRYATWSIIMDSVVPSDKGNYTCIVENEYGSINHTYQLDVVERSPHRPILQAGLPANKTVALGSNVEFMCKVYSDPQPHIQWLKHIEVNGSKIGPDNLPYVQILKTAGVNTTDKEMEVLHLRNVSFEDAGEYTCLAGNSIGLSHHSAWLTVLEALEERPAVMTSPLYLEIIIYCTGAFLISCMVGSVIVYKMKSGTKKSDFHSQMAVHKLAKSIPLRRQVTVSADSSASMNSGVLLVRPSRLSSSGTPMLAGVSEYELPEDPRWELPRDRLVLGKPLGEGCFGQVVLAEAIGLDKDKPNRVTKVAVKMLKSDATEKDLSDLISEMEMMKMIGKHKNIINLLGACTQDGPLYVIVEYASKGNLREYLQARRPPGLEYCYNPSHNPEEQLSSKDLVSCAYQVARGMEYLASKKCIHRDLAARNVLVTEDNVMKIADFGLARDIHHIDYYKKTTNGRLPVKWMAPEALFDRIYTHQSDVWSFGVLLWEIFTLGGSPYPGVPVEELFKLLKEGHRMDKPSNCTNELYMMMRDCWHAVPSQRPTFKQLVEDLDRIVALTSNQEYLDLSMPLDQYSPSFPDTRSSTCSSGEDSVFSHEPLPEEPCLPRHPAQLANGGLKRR

Take `Nc1ncnn2c(CN3CCNC(=O)C3)cc(-c3ccc(NC(=O)Nc4cc(C(F)(F)F)ccn4)cc3)c12` [Example 41, N-(4-{4-amino-7-[(3-oxopiperazin-1-yl)methyl]pyrrolo[2,1-f][1,2,4]triazin-5-yl}phenyl)-N′-[4-(trifluoromethyl)pyridin-2-yl]urea]: under setting [1], the IC50 is < 10 nM.

Consider `Nc1ncnn2c(CN3CCOCC3)cc(-c3cc(F)c(NC(=O)Nc4cccc(C(F)(F)F)c4F)cc3F)c12` [Example 42, N-{4-[4-amino-7-(morpholin-4-ylmethyl)pyrrolo[2,1-f][1,2,4]triazin-5-yl]-2,5-difluorophenyl}-N′-[2-fluoro-3-(trifluoromethyl)phenyl]urea], for which, under setting [1], the concentration for half-maximal inhibition (IC50) fell in the range of 10 to 100 nM.

Consider `CC(C)(C)c1ccccc1NC(=O)Nc1ccc(-c2cc(CN3CCOCC3)n3ncnc(N)c23)cc1` [Example 49, N-{4-[4-amino-7-(morpholin-4-ylmethyl)pyrrolo[2,1-f][1,2,4]triazin-5-yl]phenyl}-N′-(2-tert-butylphenyl)urea], for which the half-inhibitory concentration (IC50) under setting [1] was > 100 nM and the IC50 under setting [2] was < 1000 nM.

Turning to `CCc1cccc(NC(=O)Nc2ccc(-c3cc(CN4CCOCC4)n4ncnc(N)c34)cc2)c1` [Example 50, N-{4-[4-amino-7-(morpholin-4-ylmethyl)pyrrolo[2,1-f][1,2,4]triazin-5-yl]phenyl}-N′-(3-ethylphenyl)urea], under setting [1], the IC50 is < 10 nM.

Take `Nc1ncnn2c(CN3CCOCC3)cc(-c3ccc(NC(=O)Nc4cc(C(F)(F)F)ccc4Cl)cc3)c12` [Example 52, N-{4-[4-amino-7-(morpholin-4-ylmethyl)pyrrolo[2,1-f][1,2,4]triazin-5-yl]phenyl}-N′-[2-chloro-5-(trifluoromethyl)phenyl]urea]: the half-inhibitory concentration (IC50) under setting [1] is < 10 nM.

As to `CC(C)(C)c1ccnc(NC(=O)Nc2ccc(-c3cc(CN4CCOCC4)n4ncnc(N)c34)cc2)c1` [Example 53, N-{4-[4-amino-7-(morpholin-4-ylmethyl)pyrrolo[2,1-f][1,2,4]triazin-5-yl]phenyl}-N′-(4-tert-butylpyridin-2-yl)urea], under setting [1], the IC50 was < 10 nM.

For the molecule `Nc1ncnn2c(CN3CCOCC3)cc(-c3ccc(NC(=O)Nc4ccc(F)cn4)cc3)c12` [Example 55, N-{4-[4-amino-7-(morpholin-4-ylmethyl)pyrrolo[2,1-f][1,2,4]-triazin-5-yl]phenyl}-N′-(5-fluoropyridin-2-yl)urea], the IC50 under setting [1] was > 100 nM and the IC50 under setting [2] was < 1000 nM.

For the molecule `Cc1cccc(NC(=O)Nc2ccc(-c3cc(CN4CCOCC4)n4ncnc(N)c34)cc2)n1` [Example 57, N-{4-[4-amino-7-(morpholin-4-ylmethyl)pyrrolo[2,1-f][1,2,4]-triazin-5-yl]phenyl}-N′-(6-methylpyridin-2-yl)urea], the half-maximal inhibitory concentration (IC50) is, setting by setting: under setting [1], > 100 nM; under setting [2], < 1000 nM.

On to `Nc1ncnn2c(CN3CCOCC3)cc(-c3ccc(NC(=O)Nc4cccc(C(F)(F)F)c4F)cc3)c12` [Example 58, N-{4-[4-amino-7-(morpholin-4-ylmethyl)pyrrolo[2,1-f][1,2,4]-triazin-5-yl]phenyl}-N′-[2-fluoro-3-(trifluoromethyl)phenyl]urea], for which the IC50 under setting [1] lay within 10 to 100 nM.

Regarding `CC(=O)c1cccc(NC(=O)Nc2ccc(-c3cc(CN4CCOCC4)n4ncnc(N)c34)cc2)c1` [Example 59, N-(3-acetylphenyl)-N′-{4-[4-amino-7-(morpholin-4-ylmethyl)pyrrolo[2,1-f][1,2,4]triazin-5-yl]phenyl}urea], under setting [1], the IC50 lay within 10 to 100 nM.

Take `Nc1ncnn2c(CN3CCOCC3)cc(-c3ccc(NC(=O)Nc4ccc(Cl)cn4)cc3)c12` [Example 63, N-{4-[4-amino-7-(morpholin-4-ylmethyl)pyrrolo[2,1-f][1,2,4]triazin-5-yl]phenyl}-N′-(5-chloropyridin-2-yl)urea]: the IC50 reads like this: under setting [1], > 100 nM; under setting [2], < 1000 nM.

On to `Nc1ncnn2c(CN3CCOCC3)cc(-c3ccc(NC(=O)Nc4cc(C(F)(F)F)ccc4Cl)c(F)c3)c12` [Example 65, N-4-[4-amino-7-(morpholin-4-ylmethyl)pyrrolo[2,1-f][1,2,4]triazin-5-yl]-2-fluorophenyl-N′-[2-chloro-5-(trifluoromethyl)phenyl]urea], for which the IC50 under setting [1] is < 10 nM.

In the case of `Nc1ncnn2c(CN3CCOCC3)cc(-c3ccc(NC(=O)Nc4cccc(Cl)c4)c(F)c3)c12` [Example 66, N-4-[4-amino-7-(morpholin-4-ylmethyl)pyrrolo[2,1-f][1,2,4]triazin-5-yl]-2-fluorophenyl-N′-(3-chlorophenyl)urea], the IC50 under setting [1] was in the range of 10 to 100 nM.

As for `Nc1ncnn2c(CN3CCOCC3)cc(-c3ccc(NC(=O)Nc4cccc(Br)c4)c(F)c3)c12` [Example 67, N-4-[4-amino-7-(morpholin-4-ylmethyl)pyrrolo[2,1-f][1,2,4]triazin-5-yl]-2-fluorophenyl-N′-(3-bromophenyl)urea], under setting [1], the IC50 is < 10 nM.

In the case of `CCc1cccc(NC(=O)Nc2ccc(-c3cc(CN4CCS(=O)(=O)CC4)n4ncnc(N)c34)cc2F)c1` [Example 75, N-(4-{4-amino-7-[(1,1-dioxidothiomorpholin-4-yl)methyl]pyrrolo[2,1-f][1,2,4]triazin-5-yl}-2-fluorophenyl)-N′-(3-ethylphenyl)urea], the IC50 under setting [1] was < 10 nM.

Turning to `Nc1ncnn2c(CN3CCS(=O)(=O)CC3)cc(-c3ccc(NC(=O)Nc4cccc(C(F)(F)F)c4)c(F)c3)c12` [Example 77, N-(4-{4-amino-7-[(1,1-dioxidothiomorpholin-4-yl)methyl]pyrrolo[2,1-f][1,2,4]triazin-5-yl}-2-fluorophenyl)-N′-[3-(trifluoromethyl)phenyl]urea], the IC50 under setting [1] was < 10 nM.

`Nc1ncnn2c(CN3CCS(=O)(=O)CC3)cc(-c3ccc(NC(=O)Nc4cc(C(F)(F)F)ccn4)c(F)c3)c12` [Example 78, N-(4-{4-amino-7-[(1,1-dioxidothiomorpholin-4-yl)methyl]pyrrolo[2,1-f][1,2,4]triazin-5-yl}-2-fluorophenyl)-N′-[4-(trifluoromethyl)pyridin-2-yl]urea]: the IC50 under setting [1] was < 10 nM.

In the case of `Nc1ncnn2c(CN3CCS(=O)(=O)CC3)cc(-c3ccc(NC(=O)Nc4cc(C(F)(F)F)ccc4F)c(F)c3)c12` [Example 79, N-(4-{4-amino-7-[(1,1-dioxidothiomorpholin-4-yl)methyl]pyrrolo[2,1-f][1,2,4]triazin-5-yl}-2-fluorophenyl)-N′-[2-fluoro-5-(trifluoromethyl)phenyl]urea], the IC50 under setting [1] was < 10 nM.

`CC(C)(C)OC(=O)N1CCN(Cc2cc(-c3ccc(NC(=O)Nc4cc(C(F)(F)F)ccc4F)cc3)c3c(N)ncnn23)CC1` [Example 80, tert-butyl 4-[(4-amino-5-{4-[({[2-fluoro-5-(trifluoromethyl)phenyl]amino}carbonyl)amino]phenyl}pyrrolo[2,1-f][1,2,4]triazin-7-yl)methyl]piperazine-1-carboxylate]: the IC50 was > 100 nM under setting [1] and < 1000 nM under setting [2].

As for `Nc1ncnn2c(CN3CCNCC3)cc(-c3ccc(NC(=O)Nc4cc(C(F)(F)F)ccc4F)cc3)c12` [Example 81, N-4-[4-amino-7-(piperazin-1-ylmethyl)pyrrolo[2,1-f][1,2,4]triazin-5-yl]phenyl-N′-[2-fluoro-5-(trifluoromethyl)phenyl]urea], under setting [1], the IC50 is < 10 nM.

Under setting [1], `CC(C)(C)OC(=O)N1CCN(Cc2cc(-c3ccc(NC(=O)Nc4cc(C(F)(F)F)ccc4F)c(F)c3)c3c(N)ncnn23)CC1` [Example 82, tert-butyl 4-[(4-amino-5-{3-fluoro-4-[({[2-fluoro-5-(trifluoromethyl)phenyl]amino}carbonyl)amino]phenyl}pyrrolo[2,1-f][1,2,4]triazin-7-yl)methyl]piperazine-1-carboxylate] showed an IC50 of 10 to 100 nM.

Under setting [1], `CCS(=O)(=O)N1CCN(Cc2cc(-c3ccc(NC(=O)Nc4cc(C(F)(F)F)ccc4F)cc3)c3c(N)ncnn23)CC1` [Example 84, N-[4-(4-amino-7-{[4-(ethylsulfonyl)piperazin-1-yl]methyl}pyrrolo[2,1-f][1,2,4]triazin-5-yl)phenyl]-N′-[2-fluoro-5-(trifluoromethyl)phenyl]urea] registered an IC50 of 10 to 100 nM.

`CC(C)S(=O)(=O)N1CCN(Cc2cc(-c3ccc(NC(=O)Nc4cc(C(F)(F)F)ccc4F)cc3)c3c(N)ncnn23)CC1` [Example 85, N-[4-(4-amino-7-{[4(isopropylsulfonyl)piperazin-1-yl]methyl}pyrrolo[2,1-f][1,2,4]triazin-5-yl)phenyl]-N′-[2-fluoro-5-(trifluoromethyl)phenyl]urea] registered an IC50 under setting [1] of 10 to 100 nM.

Consider `Nc1ncnn2c(CN3CCN(S(=O)(=O)CC(F)(F)F)CC3)cc(-c3ccc(NC(=O)Nc4cc(C(F)(F)F)ccc4F)cc3)c12` [Example 86, N-{4-[4-amino-7-({4-[(2,2,2-trifluoroethyl)sulfonyl]piperazin-1-yl}methyl)pyrrolo[2,1-f][1,2,4]triazin-5-yl]phenyl}-N′-[2-fluoro-5-(trifluoromethyl)phenyl]urea], for which the IC50 under setting [1] was 10 to 100 nM.
